For 28 compounds, EC30 results are on record in patent US10758534B2 (Vertex Pharmaceuticals Incorporated, priority 2014, dated 2020).

Structures are written as SMILES.

T1 sequence (P13569 with tags, fused parts or gaps DEL508-508): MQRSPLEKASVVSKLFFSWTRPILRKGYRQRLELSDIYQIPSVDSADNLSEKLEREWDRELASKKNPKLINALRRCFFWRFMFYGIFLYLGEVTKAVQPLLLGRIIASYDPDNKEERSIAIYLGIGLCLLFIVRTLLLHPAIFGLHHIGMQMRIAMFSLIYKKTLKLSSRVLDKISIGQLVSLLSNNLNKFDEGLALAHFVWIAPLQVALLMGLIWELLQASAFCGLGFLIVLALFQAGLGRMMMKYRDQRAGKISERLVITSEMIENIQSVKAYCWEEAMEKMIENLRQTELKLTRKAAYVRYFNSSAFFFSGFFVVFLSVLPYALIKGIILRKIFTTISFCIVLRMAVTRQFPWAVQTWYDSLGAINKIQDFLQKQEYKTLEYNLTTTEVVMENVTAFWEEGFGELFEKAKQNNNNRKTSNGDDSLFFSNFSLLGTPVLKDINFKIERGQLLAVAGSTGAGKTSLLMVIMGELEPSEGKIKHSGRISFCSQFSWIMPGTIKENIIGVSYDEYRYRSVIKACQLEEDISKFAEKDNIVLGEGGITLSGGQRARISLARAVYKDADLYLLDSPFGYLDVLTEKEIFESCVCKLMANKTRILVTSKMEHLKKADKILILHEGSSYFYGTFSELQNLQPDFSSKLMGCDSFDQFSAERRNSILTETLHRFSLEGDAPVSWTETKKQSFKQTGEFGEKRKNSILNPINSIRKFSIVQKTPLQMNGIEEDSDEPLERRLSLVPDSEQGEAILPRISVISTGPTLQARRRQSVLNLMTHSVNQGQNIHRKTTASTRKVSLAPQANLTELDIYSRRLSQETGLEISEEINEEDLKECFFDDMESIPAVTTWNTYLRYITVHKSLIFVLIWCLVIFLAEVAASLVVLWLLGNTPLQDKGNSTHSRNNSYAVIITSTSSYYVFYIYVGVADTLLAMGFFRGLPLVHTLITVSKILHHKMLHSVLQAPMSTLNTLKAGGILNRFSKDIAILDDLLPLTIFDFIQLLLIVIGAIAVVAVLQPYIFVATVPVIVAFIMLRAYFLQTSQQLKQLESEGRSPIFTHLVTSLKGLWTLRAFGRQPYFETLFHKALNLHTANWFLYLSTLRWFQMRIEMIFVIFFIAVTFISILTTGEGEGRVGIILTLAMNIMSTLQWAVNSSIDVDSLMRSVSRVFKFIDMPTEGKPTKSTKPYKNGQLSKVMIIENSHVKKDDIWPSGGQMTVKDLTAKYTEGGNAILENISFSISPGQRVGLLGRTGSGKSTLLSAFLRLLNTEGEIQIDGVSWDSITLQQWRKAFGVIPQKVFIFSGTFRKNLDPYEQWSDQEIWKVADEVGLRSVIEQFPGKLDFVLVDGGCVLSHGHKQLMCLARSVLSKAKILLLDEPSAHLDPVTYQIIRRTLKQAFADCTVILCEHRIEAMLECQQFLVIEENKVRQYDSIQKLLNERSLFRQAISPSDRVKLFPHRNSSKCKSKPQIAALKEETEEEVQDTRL

This test concerns the target T1, F508del (Homo sapiens, UniProt P13569, DEL508-508).
T1 construct: expressed in transfected cells
Kind of test: Protocol 1: membrane potential optical assay (FLIPR III, voltage sensing dye), identification of potentiator compounds. As to conditions: Table 3, compounds of Table 1. The test is classed as cell-based. In a few lines:
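NIH3T3 F508del cells, 27° C × 24 hrs; compound/DMSO pretreat → redistribution dye load → single forskolin addition with Cl⁻ gradient (gluconate-substituted bath, HEPES pH 7.4). FLIPR III membrane-potential fluorescence read.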
In the case of `CC(C)COc1cc(F)cc(-c2ccc(C(=O)NS(=O)(=O)c3cccc(N)n3)c(OCCC3CCC3)n2)c1` [Compound 1418, N-[(6-amino-2-pyridyl)sulfonyl]-2-(2-cyclobutylethoxy)-6-(3-fluoro-5-isobutoxy-phenyl)pyridine-3-carboxamide], the EC30 entry is recorded as “+++ (“+++” means <3 uM)”.

Consider `CCOc1cccc(-c2ccc(C(=O)NS(=O)(=O)c3cccnc3N)c(N3C[C@@H](C)CC3(C)C)n2)c1` [Compound 1822, N-[(2-amino-3-pyridyl)sulfonyl]-6-(3-ethoxyphenyl)-2-[(4S)-2,2,4-trimethylpyrrolidin-1-yl]pyridine-3-carboxamide], for which the EC30 entry is “+++ (“+++” means <3 uM)”.

As to `Cc1cc(C)c(Oc2nc(C3=CCNCC3)ccc2C(=O)NS(=O)(=O)c2cccc(N)n2)c(C)c1` [Compound 1643, N-[(6-amino-2-pyridyl)sulfonyl]-6-(1,2,3,6-tetrahydropyridin-4-yl)-2-(2,4,6-trimethylphenoxy)pyridine-3-carboxamide], the EC30 result is “++ (“++” means between 3 uM and 10 uM)”.

In the case of `CC(C)COc1cc(F)cc(-c2ccc(C(=O)NS(=O)(=O)c3cccc(N)n3)c(N3CCC[C@H]3C(C)(C)C)n2)c1` [Compound 1097, N-[(6-amino-2-pyridyl)sulfonyl]-2-[(2S)-2-tert-butylpyrrolidin-1-yl]-6-(3-fluoro-5-isobutoxy-phenyl)pyridine-3-carboxamide], the EC30 entry is listed as “+++ (“+++” means <3 uM)”.

As to `CC1CCC(Oc2cccc(S(=O)(=O)NC(=O)c3cccnc3N3CC(C)CC3(C)C)n2)C1` (stereo not shown) [Compound 1884, N—[[6-(3-methylcyclopentoxy)-2-pyridyl]sulfonyl]-2-(2,2,4-trimethylpyrrolidin-1-yl)pyridine-3-carboxamide], the EC30 entry was “+++ (“+++” means <3 uM)”.

On to `CC(C)COc1cc(F)cc(-c2ccc(C(=O)NS(=O)(=O)c3cccc(N)n3)c(OCC3CCOC3)n2)c1` (stereo not shown) [Compound 1499, N-[(6-amino-2-pyridyl)sulfonyl]-6-(3-fluoro-5-isobutoxy-phenyl)-2-(tetrahydrofuran-3-ylmethoxy)pyridine-3-carboxamide], for which the EC30 entry is “++ (“++” means between 3 uM and 10 uM)”.

As to `Cc1cc(C)c(Oc2nc(-c3cccc(F)c3O)ccc2C(=O)NS(=O)(=O)c2cccc(N)n2)c(C)c1` [Compound 866, N-[(6-amino-2-pyridyl)sulfonyl]-6-(3-fluoro-2-hydroxy-phenyl)-2-(2,4,6-trimethylphenoxy)pyridine-3-carboxamide], the EC30 result is given as “+++ (“+++” means <3 uM)”.

Consider `C[C@@H]1CN(c2ncc(C(F)(F)F)cc2C(=O)NS(=O)(=O)c2cccc(N)n2)C(C)(C)C1` [Compound 1550, N-[(6-amino-2-pyridyl)sulfonyl]-5-(trifluoromethyl)-2-[(4S)-2,2,4-trimethylpyrrolidin-1-yl]pyridine-3-carboxamide], for which the EC30 result was “++ (“++” means between 3 uM and 10 uM)”.

In the case of `CC(C)Oc1ccc(-c2ccc(C(=O)NS(=O)(=O)c3cccc(N)n3)c(N3C4CCC3CC4)n2)cn1` [Compound 903, N-[(6-amino-2-pyridyl)sulfonyl]-2-(7-azabicyclo[2.2.1]heptan-7-yl)-6-(6-isopropoxy-3-pyridyl)pyridine-3-carboxamide], the EC30 entry is “++ (“++” means between 3 uM and 10 uM)”.

`CC1CN(c2ncc(-c3cccc(C#N)c3)cc2C(=O)NS(=O)(=O)c2cccc(N)n2)C(C)(C)C1` (stereo not shown) [Compound 1849, N-[(6-amino-2-pyridyl)sulfonyl]-5-(3-cyanophenyl)-2-(2,2,4-trimethylpyrrolidin-1-yl)pyridine-3-carboxamide]: the EC30 entry was “++ (“++” means between 3 uM and 10 uM)”.

Take `CC(C)COc1cnn(-c2ccc(C(=O)NS(=O)(=O)c3ccccc3)c(N3C[C@@H](C)CC3(C)C)n2)c1` [Compound 1912, N-(benzenesulfonyl)-6-(4-isobutoxypyrazol-1-yl)-2-[(4S)-2,2,4-trimethylpyrrolidin-1-yl]pyridine-3-carboxamide]: the EC30 result is recorded as “+++ (“+++” means <3 uM)”.

As for `Cc1cc(C)c(Oc2nc(-c3cnc(N(C)C)nc3)ccc2C(=O)NS(=O)(=O)c2cccc(N)n2)c(C)c1` [Compound 1139, N-[(6-amino-2-pyridyl)sulfonyl]-6-[2-(dimethylamino)pyrimidin-5-yl]-2-(2,4,6-trimethylphenoxy)pyridine-3-carboxamide], the EC30 result is recorded as “+++ (“+++” means <3 uM)”.

For the compound `COc1ccc(/C=C/c2cnc(N3CC(C)CC3(C)C)c(C(=O)NS(=O)(=O)c3cccc(N)n3)c2)cc1` (stereo not shown) [Compound 1726, N-[(6-amino-2-pyridyl)sulfonyl]-5-[(E)-2-(4-methoxyphenyl)vinyl]-2-(2,2,4-trimethylpyrrolidin-1-yl)pyridine-3-carboxamide], the EC30 entry is reported as “+++ (“+++” means <3 uM)”.

Take `COc1cccnc1S(=O)(=O)NC(=O)C1(C)c2ccccc2CN1Cc1c(C)cc(C)cc1C` (stereo not shown) [Compound 825, N-[(3-methoxy-2-pyridyl)sulfonyl]-1-methyl-2-[(2,4,6-trimethylphenyl)methyl]isoindoline-1-carboxamide]: the EC30 result was “++ (“++” means between 3 uM and 10 uM)”.

Turning to `CCOc1ccc(-c2ccc(C(=O)NS(=O)(=O)c3nccnc3N)c(NCC3(C)CCOCC3)n2)cc1` [Compound 1203, N-(3-aminopyrazin-2-yl)sulfonyl-6-(4-ethoxyphenyl)-2-[(4-methyltetrahydropyran-4-yl)methylamino]pyridine-3-carboxamide], the EC30 result is reported as “+ (“+” means greater than 10 uM)”.

As to `CCc1ccccc1-c1cnc(Oc2c(C)cc(C)cc2C)c(C(=O)NS(=O)(=O)c2cccc(N)n2)c1` [Compound 945, N-[(6-amino-2-pyridyl)sulfonyl]-5-(2-ethylphenyl)-2-(2,4,6-trimethylphenoxy)pyridine-3-carboxamide], the EC30 entry is given as “+++ (“+++” means <3 uM)”.

For the compound `COc1ccccc1-c1ccc(C(=O)NS(=O)(=O)c2cccc(N)n2)c(Oc2c(C)cc(C)cc2C)n1` [Compound 1173, N-[(6-amino-2-pyridyl)sulfonyl]-6-(2-methoxyphenyl)-2-(2,4,6-trimethylphenoxy)pyridine-3-carboxamide], the EC30 entry is “+++ (“+++” means <3 uM)”.

For `CC(C)COc1cc(F)cc(-c2ccc(C(=O)NS(=O)(=O)c3cccc(N)n3)c(N3CC(C)(C)CC3(C)C)n2)c1` [Compound 850, N-[(6-amino-2-pyridyl)sulfonyl]-6-(3-fluoro-5-isobutoxy-phenyl)-2-(2,2,4,4-tetramethylpyrrolidin-1-yl)pyridine-3-carboxamide], the EC30 result is “+++ (“+++” means <3 uM)”.

In the case of `CCOc1cccc2c1CN(Cc1c(C)cc(C)cc1C)C2(C)C(=O)NS(=O)(=O)c1ccccc1` (stereo not shown) [Compound 1539, N-(benzenesulfonyl)-4-ethoxy-1-methyl-2-[(2,4,6-trimethylphenyl)methyl]isoindoline-1-carboxamide], the EC30 result was “+++ (“+++” means <3 uM)”.

Turning to `C[C@@H]1CN(c2nc3c(cc2C(=O)NS(=O)(=O)c2cccc(N)n2)CCC3)C(C)(C)C1` [Compound 1386, N-[(6-amino-2-pyridyl)sulfonyl]-2-[(4S)-2,2,4-trimethylpyrrolidin-1-yl]-6,7-dihydro-5H-cyclopenta[b]pyridine-3-carboxamide], the EC30 entry was “++ (“++” means between 3 uM and 10 uM)”.

With `CC(C)COc1cc(F)cc(-c2ccc(C(=O)NS(=O)(=O)c3cccc(N)n3)c(OC3CCCCC3)n2)c1` [Compound 1477, N-[(6-amino-2-pyridyl)sulfonyl]-2-(cyclohexoxy)-6-(3-fluoro-5-isobutoxy-phenyl)pyridine-3-carboxamide], the EC30 entry was “+++ (“+++” means <3 uM)”.

As to `Cc1ccc(CNc2cccc(S(=O)(=O)NC(=O)c3cccnc3N3CC(C)CC3(C)C)n2)cc1` (stereo not shown) [Compound 1892, N—[[6-(p-tolylmethylamino)-2-pyridyl]sulfonyl]-2-(2,2,4-trimethylpyrrolidin-1-yl)pyridine-3-carboxamide], the EC30 result is given as “+++ (“+++” means <3 uM)”.

For `CC(C)COc1cc(F)cc(-c2ccc(C(=O)NS(=O)(=O)c3cccc(N)n3)c(N(C)C3CC3)n2)c1` [Compound 1117, N-[(6-amino-2-pyridyl)sulfonyl]-2-[cyclopropyl(methyl)amino]-6-(3-fluoro-5-isobutoxy-phenyl)pyridine-3-carboxamide], the EC30 entry was “+++ (“+++” means <3 uM)”.

With `CCCOc1ccc(-c2ccc(C(=O)NS(=O)(=O)c3ccc[nH]c3=O)c(Oc3c(C)cc(C)cc3C)n2)cc1` [Compound 1202, N-[(2-oxo-1H-pyridin-3-yl)sulfonyl]-6-(4-propoxyphenyl)-2-(2,4,6-trimethylphenoxy)pyridine-3-carboxamide], the EC30 entry is recorded as “+++ (“+++” means <3 uM)”.

As for `CCN(CC)c1nc(-c2ccc(C(=O)NS(=O)(=O)c3cccc(N)n3)c(N3CC(C)CC3(C)C)n2)ccc1C` (stereo not shown) [Compound 1907, N-[(6-amino-2-pyridyl)sulfonyl]-6-[6-(diethylamino)-5-methyl-2-pyridyl]-2-(2,2,4-trimethylpyrrolidin-1-yl)pyridine-3-carboxamide], the EC30 entry is recorded as “+++ (“+++” means <3 uM)”.

Take `CC(C)COc1cc(F)cc(-c2ccc(C(=O)NS(=O)(=O)c3ccn[nH]3)c(N3CCC(c4ccccc4)CC3)n2)c1` [Compound 1315, 6-(3-fluoro-5-isobutoxy-phenyl)-2-(4-phenyl-1-piperidyl)-N-(1H-pyrazol-5-ylsulfonyl)pyridine-3-carboxamide]: the EC30 entry is given as “+++ (“+++” means <3 uM)”.

On to `CC(C)COc1ccc(-c2ccc(C(=O)NS(=O)(=O)c3ccc[nH]c3=O)c(N3[C@H](C)CC[C@@H]3C)n2)cc1` [Compound 891, 2-[(2S,5R)-2,5-dimethylpyrrolidin-1-yl]-6-(4-isobutoxyphenyl)-N-[(2-oxo-1H-pyridin-3-yl)sulfonyl]pyridine-3-carboxamide], for which the EC30 result was “+++ (“+++” means <3 uM)”.

For the compound `CC1CN(c2ncccc2C(=O)NS(=O)(=O)c2cccc(N(C)CCc3ccccc3)n2)C(C)(C)C1` (stereo not shown) [Compound 1978, N—[[6-[methyl(phenethyl)amino]-2-pyridyl]sulfonyl]-2-(2,2,4-trimethylpyrrolidin-1-yl)pyridine-3-carboxamide], the EC30 entry is reported as “+++ (“+++” means <3 uM)”.
